Measured values from patent publication US20110065760A1, “COMPOUNDS FOR THE INHIBITION OF ROTAMASES AND USE THEREOF” (Jerini AG, priority 2002, published 2011).
Where two headings read alike, the source gives them in different places.

Key:
hPin1 = hPin1 (Homo sapiens, UniProt Q13526); assay: protease-coupled PPIase assay, hPin1; assay type: biochemical; conditions: 6 nM hPin1, substrate Ac-Ala-Ala-Ser(PO3H2)-Pro-Arg-pNA, trypsin, pH 7.8, 6° C.; read-out: IC50 class, Target T-1 (hPin1)
Papain = molecular target: T1, Papain (Carica papaya, UniProt P00784); assay: papain assay; assay type: biochemical; conditions: 16 μg/ml papain, 2 mM Bz-DL-Arg-pNA, pH 6.5, 30° C., 30 min incubation; read-out: IC50 class, Target T-6 (Papain)
T1 sequence (P00784 134-345): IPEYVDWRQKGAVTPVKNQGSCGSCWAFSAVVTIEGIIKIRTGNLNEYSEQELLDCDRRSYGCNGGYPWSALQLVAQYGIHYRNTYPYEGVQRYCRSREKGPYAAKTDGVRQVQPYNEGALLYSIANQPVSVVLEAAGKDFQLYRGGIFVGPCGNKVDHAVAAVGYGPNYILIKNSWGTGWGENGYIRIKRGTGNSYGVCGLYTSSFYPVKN
Protocol: In order to investigate the impact of some of the inventive compounds on the activity of key proteases the following assay was performed: Protease activities were measured spectrophotometrically at 30° C. according to Schomburg and Salzmann (Schomburg, B.; Salzmann M. GBF: Enzyme Handbook. Springer Verlag, Berlin Heidelberg, 1991) and Bergmeyer et al. (Bergmeyer, H. U.; Bergmeyer, J.; Graβl, M. Methods of Enzymatic Analysis, Vol. V Enzymes 3: Peptides, Proteinases and Their Inhibitors. pp 55-371, VCH, Weinheim, 1988). The release of 4-nitroaniline was determined at 390 nm with a Spectramax Plus UV/Vis spectrophotometer (Molecular Devices). The cathepsin B assay was performed in a reaction mixture containing 0.2 μg/ml cathepsin B, 2 mM Z-Arg-Arg-pNA in 88 mM KH2PO4, 12 mM Na2HPO4, 1.33 mM EDTA, 0.03% Brij 35 (pH 5.8). The trypsin assay was carried out in a reaction mixture containing 0.1 μg/ml trypsin and 120 μM Ac-Ala-Ala-Ser(PO3H2)-Pro-Arg-pNA in 35 mM HEPES (pH 7.8) and the papain assay in a mixture consisting of 16 μg/ml papain and 2 mM Bz-DL-Arg-pNA in 10 mM Na2HPO4, 2 mM L-Cys, 5 mM EDTA (pH 6.5). In general, reactions were started by addition of peptide substrate after a 30 min incubation of 1-100 μM effector with given concentrations of enzyme.

hCyp18 = hCyp18 (Homo sapiens, UniProt P62937); assay: protease-coupled PPIase assay, hCyp18; assay type: biochemical; conditions: 10 nM hCyp18, substrate Suc-Ala-Phe-Pro-Phe-pNA, chymotrypsin, pH 7.8, 6° C.; read-out: IC50 class, Target T-3 (hCyp18)
hCyp18, sequence (P62937 whole entry): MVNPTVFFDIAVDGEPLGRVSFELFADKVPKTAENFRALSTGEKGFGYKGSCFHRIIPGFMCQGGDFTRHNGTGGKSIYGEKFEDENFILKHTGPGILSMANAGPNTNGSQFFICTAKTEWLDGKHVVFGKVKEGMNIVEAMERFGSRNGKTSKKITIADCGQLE

hFKBP12 = hFKBP12 (Homo sapiens, UniProt P62942); assay: protease-coupled PPIase assay, hFKBP12; assay type: biochemical; conditions: 20 nM hFKBP12, substrate Suc-Ala-Phe-Pro-Phe-pNA, chymotrypsin, pH 7.8, 6° C.; read-out: IC50 class, Target T-2 (hFKBP12)
hFKBP12, sequence (P62942 whole entry): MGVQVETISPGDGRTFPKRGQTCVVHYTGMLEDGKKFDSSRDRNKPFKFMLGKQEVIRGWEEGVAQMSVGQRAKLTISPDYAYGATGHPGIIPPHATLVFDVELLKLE

LpCyp18 = LpCyp18 (Legionella pneumophila, UniProt Q5ZRZ4); assay: biochemical; conditions: IC50 class, Target T-4 (LpCyp18)
LpCyp18, sequence (Q5ZRZ4 1-164): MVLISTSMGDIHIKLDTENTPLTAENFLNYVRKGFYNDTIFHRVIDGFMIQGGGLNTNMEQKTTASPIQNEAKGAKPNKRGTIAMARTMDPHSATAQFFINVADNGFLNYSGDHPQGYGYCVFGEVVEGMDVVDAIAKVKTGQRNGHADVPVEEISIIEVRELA

EcParvulin = EcParvulin (Escherichia coli, UniProt P0A9L5); assay: protease-coupled PPIase assay, EcParvulin; assay type: biochemical
EcParvulin, sequence (P0A9L5 whole entry): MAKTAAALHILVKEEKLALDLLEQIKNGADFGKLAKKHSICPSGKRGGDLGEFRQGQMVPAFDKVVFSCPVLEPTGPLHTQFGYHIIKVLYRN

[1] = WST-1 cytotoxicity assay, HL-60; assay type: cell-based; conditions: human, HL-60 cells (acute myeloid leukemia); WST-1, 48 h incubation; read-out: EC50 class, cytotoxic effect, CL-1 (HL-60)
Protocol: For this cytotoxic evaluation of the compounds the commercial available WST-1 assay (Roche) was used according to the manufacturer's instructions. The assay is based on the cleavage of the tetrazolium salt WST-1 by mitochondrial dehydrogenases found in viable cells. In general compounds were added to cells cultured in 96-well plates at 37° C. After 48 h of incubation 10 μl of WST-1 solution was added. The formazan dye was analyzed with an ELISA plate reader at (450 vs. 620) nm. CL-1: human acute myeloid leukemia, HL-60 CL-2: human cervix carcinoma, HeLa CL-3: human prostate carcinoma, PC-3 CL-4: human colon adenocarcinoma, Caco-2 CL-5: human breast adenocarcinoma, MCF-7

[2] = 20 nM EcParvulin, substrate Suc-Ala-Phe-Pro-Phe-pNA, chymotrypsin, pH 7.8, 6° C., read-out: IC50 class, Target T-5 (EcParv)

hPin1, sequence (Q13526 whole entry): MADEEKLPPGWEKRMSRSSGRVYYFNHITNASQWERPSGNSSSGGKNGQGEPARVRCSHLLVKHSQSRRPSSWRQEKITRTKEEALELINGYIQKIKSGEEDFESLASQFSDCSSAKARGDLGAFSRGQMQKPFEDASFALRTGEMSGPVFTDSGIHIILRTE

| SMILES | IC50 (hPin1) [µM] | IC50 (Papain) [µM] | IC50 (hCyp18) [µM] | IC50 (hFKBP12) [µM] | IC50 (LpCyp18) [µM] | IC50 (EcParvulin) [µM] | IC50 (EcParvulin; [2]) [µM] | EC50 at 48 h [1] [µM] |
| --- | --- | --- | --- | --- | --- | --- | --- | --- |
| CC(C)(C)NC(=O)Nc1cc(Cl)cc(Cl)c1O [Compound 31] | < 1 |  |  |  |  |  |  |  |
| Cc1c(Cl)cc(NC(=O)NC23CC4CC(CC(C4)C2)C3)c(O)c1Cl [Compound 118] | 1 to 10 | > 100 | 10 to 50 | 50 to 100 | 10 to 50 | 1 to 10 |  |  |
| Cc1c(Cl)cc(NC(=O)Nc2ccccc2)c(O)c1Cl [Compound 120] | 10 to 50 |  | 10 to 50 | 50 to 100 | > 100 |  |  |  |
| CC(C)(C)CC(C)(C)NC(=O)Nc1cc(Br)cc(F)c1O [Compound 126] | < 1 |  |  |  |  |  |  |  |
| CC(C)(C)NC(=O)Nc1cc(Br)cc(F)c1O [Compound 127] | 1 to 10 |  |  |  |  |  |  |  |
| O=C(Nc1cc(Br)cc(F)c1O)NC12CC3CC(CC(C3)C1)C2 [Compound 142] | < 1 |  |  |  |  |  |  |  |
| Cc1c(Cl)cc(NC(=S)NC(C)(C)CC(C)(C)C)c(O)c1Cl [Compound 257] | < 1 |  |  |  |  |  |  |  |
| Cc1c(Cl)cc(NC(=S)Nc2ccccc2C(F)(F)F)c(O)c1Cl [Compound 266] | < 1 |  | > 100 | > 100 | > 100 |  | 1 to 10 |  |
| Oc1c(Cl)cccc1NCc1ccccc1Sc1ccc(Cl)cc1 [Compound 343] | 1 to 10 | > 100 | 10 to 50 | > 100 | > 100 | > 100 |  |  |
| Cc1c(Cl)cc(NCc2ccccc2Sc2ccc(Cl)cc2)c(O)c1Cl [Compound 371] | < 1 | > 100 | 10 to 50 | > 100 | > 100 | 10 to 50 |  |  |
| Oc1c(F)cc(Br)cc1NCc1ccccc1Sc1ccc(Cl)cc1 [Compound 385] |  | > 100 |  |  |  |  |  |  |
| O=[N+]([O-])c1ccc(Sc2ccccc2CNc2ccc(F)c(F)c2O)cc1 [Compound 400] | < 1 |  |  |  |  |  |  |  |
| CCc1c(Cl)cc(NCc2ccccc2Sc2ccc(Cl)cc2)c(O)c1Cl [Compound 441] | 1 to 10 | > 100 | 10 to 50 | > 100 | > 100 | > 100 |  |  |
| Oc1c(Cl)cc(Cl)cc1NCc1cccc(Oc2ccc(Cl)cc2)c1 [Compound 482] | 1 to 10 |  | 10 to 50 | > 100 | > 100 |  | > 100 |  |
| Cc1c(Cl)cc(NCc2cccc(Oc3ccc(Cl)cc3)c2)c(O)c1Cl [Compound 498] |  | > 100 |  |  |  |  |  |  |
| Cc1c(Cl)cc(NCc2cccc(Oc3ccc(C(C)(C)C)cc3)c2)c(O)c1Cl [Compound 499] |  | > 100 |  |  |  |  |  |  |
| Cc1c(Cl)cc(NCc2c(F)cccc2Cl)c(O)c1Cl [Compound 512] | 10 to 50 |  | 50 to 100 | > 100 | > 100 |  | 10 to 50 |  |
| CCCCCCCCS(=O)(=O)Nc1cc(Cl)c(C)c(Cl)c1O [Compound 563] | 1 to 10 | > 100 | > 100 | > 100 | > 100 | > 100 |  |  |
| CCOC(=O)C(Cc1ccccc1)NC(=O)Nc1cc(Cl)c(C)c(Cl)c1O (centres unmarked) [Compound 593] | 1 to 10 |  |  |  |  |  |  |  |
| CC(C)(C)NC(=O)Nc1cc(NC(=O)NC2CCCCC2)cc(Cl)c1O [Compound 605] | < 1 |  | 10 to 50 | > 100 | > 100 |  | 1 to 10 |  |
| O=C(NCCc1ccccc1)Nc1cc(Cl)c(O)c(NCc2ccccc2Sc2ccc(Cl)cc2)c1 [Compound 610] | < 1 |  |  |  |  |  |  |  |

| SMILES | IC50 (hPin1) [µM] | IC50 (Papain) [µM] | IC50 (hCyp18) [µM] | IC50 (hFKBP12) [µM] | IC50 (LpCyp18) [µM] | IC50 (EcParvulin) [µM] | IC50 (EcParvulin; [2]) [µM] | EC50 at 48 h [1] [µM] |
| --- | --- | --- | --- | --- | --- | --- | --- | --- |
| CC(C)(C)NC(=O)Nc1cc(NC(=O)NCCc2ccccc2)cc(Cl)c1O [Compound 622] | < 1 |  |  |  |  |  |  |  |
| CC(C)(C)NC(=O)Nc1cc(-c2nc3ccccc3s2)cc(Cl)c1O [Compound 636] | < 1 |  |  |  |  |  |  |  |
| Oc1c(Cl)cc(-c2nc3ccccc3s2)cc1NC(=S)NCc1ccccc1 [Compound 637] | 1 to 10 |  |  |  |  |  |  |  |
| Oc1c(Cl)cc(-c2nc3ccccc3s2)cc1NC(=S)NCCc1ccccc1 [Compound 638] | 1 to 10 |  |  |  |  |  |  |  |
| CCCCCNC(=O)Nc1ccc(C)cc1O [Compound 643] | 10 to 50 | > 100 | > 100 | > 100 | > 100 | > 100 |  |  |
| Cc1c(Cl)cc(NC(=O)c2ccc(-c3ccccc3)cc2)c(O)c1Cl [Compound 644] |  | > 100 |  |  |  |  |  |  |
| Oc1c(Cl)cc(Cl)cc1NCc1ccco1 [Compound 647] | 1 to 10 |  | > 100 | > 100 | > 100 |  | > 100 |  |
| Cc1c(Cl)cc(NCc2ccccc2)c(O)c1Cl [Compound 655] | 10 to 50 |  | > 100 | > 100 | > 100 |  | 10 to 50 |  |
| Cc1c(Cl)cc(NC(=O)NCCc2nc3ccccc3[nH]2)c(O)c1Cl [Compound 656] | < 1 |  |  |  |  |  |  |  |
| Oc1ccc(NCc2ccccc2Sc2ccc(Cl)cc2)c(O)c1 [Compound 672] |  |  | 1 to 10 |  | 10 to 50 |  |  |  |
| O=C(NCc1ccccc1)Nc1cc(Cl)c(O)c(Cl)c1 [Compound 700] | < 1 |  | > 100 | > 100 | > 100 |  | 10 to 50 |  |
| O=C(Nc1cc(Cl)c(O)c(Cl)c1)NC1CCCCC1 [Compound 710] | < 1 | > 100 | > 100 | > 100 | > 100 | > 100 |  |  |
| Cc1cccc(C)c1NC(=O)Nc1cc(Cl)c(O)c(Cl)c1 [Compound 716] | 1 to 10 | > 100 | > 100 | > 100 | > 100 | 10 to 50 |  |  |
| O=C(Nc1cc(Cl)c(O)c(Cl)c1)NC12CC3CC(CC(C3)C1)C2 [Compound 719] | < 1 |  | 50 to 100 | > 100 | 10 to 50 |  |  |  |
| Oc1c(Cl)cc(NC(=S)Nc2ccccc2C(F)(F)F)cc1Cl [Compound 894] | < 1 |  | > 100 | > 100 | > 100 |  | 1 to 10 |  |
| O=C(CCc1ccccc1)Nc1cc(Cl)c(O)c(Cl)c1 [Compound 1293] | 1 to 10 |  | > 100 | > 100 | > 100 |  | 10 to 50 |  |
| O=C(Cc1ccccc1[N+](=O)[O-])Nc1cc(Cl)c(O)c(Cl)c1 [Compound 1294] | < 1 |  | > 100 | > 100 | > 100 |  | 1 to 10 |  |
| O=C(Cc1ccc2c(c1)OCO2)Nc1cc(Cl)c(O)c(Cl)c1 [Compound 1295] | 1 to 10 |  | > 100 | > 100 | > 100 |  | 1 to 10 |  |
| O=C(Nc1cc(Cl)c(O)c(Cl)c1)c1ccc2ccccc2c1 [Compound 1297] | < 1 |  | > 100 | > 100 | > 100 |  | 10 to 50 | 50 to 100 |
| O=C(Nc1cc(Cl)c(O)c(Cl)c1)c1ccccc1 [Compound 1298] | < 1 |  | > 100 | > 100 | > 100 |  | 10 to 50 |  |
| O=C(Nc1cc(Cl)c(O)c(Cl)c1)c1ccco1 [Compound 1299] | < 1 |  | < 1 | > 100 | > 100 |  | 10 to 50 |  |
